Experimental data reported in ChEMBL document CHEMBL3585283, “Synthesis and evaluation of a series of quinolinyl trans-cyanostilbene analogs as anticancer agents” (2014).
Active and inactive are the calls of the source. No cut-off for these calls is given here.

Key:
[1] = tested on: EKVX; assay: Antitumor activity against human EKVX cells after 48 hrs; assay type: functional, cell-based
[2] = tested on: SF-268; assay: Antitumor activity against human SF268 cells after 48 hrs; assay type: functional; conditions: SF-268, 48 h
[3] = tested on: NCI-H522; assay: Antitumor activity against human NCI-H522 cells after 48 hrs; assay type: functional; conditions: NCI-H522, 48 h
[4] = Antitumor activity against human SF539 cells after 48 hrs; assay type: functional; conditions: SF-539, 48 h
[5] = Antitumor activity against human Hs578T cells after 48 hrs; assay type: functional; conditions: Hs-578T
[6] = tested on: SK-MEL-2; assay: Antitumor activity against human SK-MEL-2 cells after 48 hrs; assay type: functional; conditions: SK-MEL-2, 48 h
[7] = tested on: TK-10; assay: Antitumor activity against human TK10 cells after 48 hrs; assay type: functional; conditions: TK-10, 48 h
[8] = tested on: HT-29; assay: Antitumor activity against human HT-29 cells after 48 hrs; assay type: functional; conditions: HT-29, 48 h
[9] = Antitumor activity against human NCI-ADR-RES cells after 48 hrs; assay type: functional
[10] = Antitumor activity against human HOP92 cells after 48 hrs; assay type: functional; conditions: HOP-92, 48 h
[11] = Antitumor activity against human SF295 cells after 48 hrs; assay type: functional; conditions: SF-295, 48 h
[12] = tested on: CAKI-1; assay: Antitumor activity against human Caki1 cells after 48 hrs; assay type: functional; conditions: CAKI-1, 48 h
[13] = tested on: NCI-H226; assay: Antitumor activity against human NCI-H226 cells after 48 hrs; assay type: functional; conditions: NCI-H226, 48 h
[14] = tested on: 786-0; assay: Antitumor activity against human 786-0 cells after 48 hrs; assay type: functional; conditions: 786-0, 48 h
[15] = Antitumor activity against human HCC2998 cells after 48 hrs; assay type: functional; conditions: HCC 2998, 48 h
[16] = tested on: T47D; assay: Antitumor activity against human T47D cells after 48 hrs; assay type: functional
[17] = tested on: U-251; assay: Antitumor activity against human U251 cells after 48 hrs; assay type: functional; conditions: U-251, 48 h
[18] = tested on: DU-145; assay: Antitumor activity against human DU145 cells after 48 hrs; assay type: functional; conditions: DU-145, 48 h
[19] = Antitumor activity against human MOLT4 cells after 48 hrs; assay type: functional; conditions: MOLT-4, 48 h
[20] = tested on: Malme-3M; assay: Antitumor activity against human MALME-3M cells after 48 hrs; assay type: functional
[21] = tested on: MDA-MB-231; assay: Antitumor activity against human MDA-MB-231 cells after 48 hrs; assay type: functional; conditions: MDA-MB-231, 48 h
[22] = tested on: NCI-H460; assay: Antitumor activity against human NCI-H460 cells after 48 hrs; assay type: functional; conditions: NCI-H460, 48 h
[23] = tested on: MDA-MB-435; assay: Antitumor activity against human MDA-MB-435 cells after 48 hrs; assay type: functional; conditions: MDA-MB-435, 48 h
[24] = tested on: ACHN; assay: Antitumor activity against human ACHN cells after 48 hrs; assay type: functional
[25] = Antitumor activity against human COLO205 cells after 48 hrs; assay type: functional; conditions: COLO 205, 48 h
[26] = tested on: CCRF-CEM; assay: Antitumor activity against human CCRF-CEM cells after 48 hrs; assay type: functional
[27] = tested on: HOP-62; assay: Antitumor activity against human HOP62 cells after 48 hrs; assay type: functional; conditions: HOP-62, 48 h
[28] = tested on: OVCAR-8; assay: Antitumor activity against human OVCAR8 cells after 48 hrs; assay type: functional; conditions: OVCAR-8, 48 h
[29] = Antitumor activity against human RPMI8226 cells after 48 hrs; assay type: functional; conditions: RPMI-8226, 48 h
[30] = tested on: SK-OV-3; assay: Antitumor activity against human SKOV3 cells after 48 hrs; assay type: functional; conditions: SK-OV-3, 48 h
[31] = tested on: KM12; assay: Antitumor activity against human KM12 cells after 48 hrs; assay type: functional; conditions: KM12, 48 h
[32] = tested on: MCF7; assay: Antitumor activity against human MCF7 cells after 48 hrs; assay type: functional; conditions: MCF7, 48 h
[33] = tested on: UO-31; assay: Antitumor activity against human UO31 cells after 48 hrs; assay type: functional; conditions: UO-31, 48 h
[34] = tested on: SN12C; assay: Antitumor activity against human SN12C cells after 48 hrs; assay type: functional
[35] = Antitumor activity against human BT549 cells after 48 hrs; assay type: functional; conditions: BT-549, 48 h
[36] = tested on: SK-MEL-5; assay: Antitumor activity against human SK-MEL-5 cells after 48 hrs; assay type: functional; conditions: SK-MEL-5, 48 h
[37] = tested on: A498; assay: Antitumor activity against human A498 cells after 48 hrs; assay type: functional; conditions: A498, 48 h
[38] = tested on: HL-60(TB); assay: Antitumor activity against human HL-60(TB) cells after 48 hrs; assay type: functional; conditions: HL-60, 48 h
[39] = tested on: OVCAR-5; assay: Antitumor activity against human OVCAR5 cells after 48 hrs; assay type: functional; conditions: OVCAR-5, 48 h
[40] = tested on: SW-620; assay: Antitumor activity against human SW620 cells after 48 hrs; assay type: functional; conditions: SW-620, 48 h
[41] = Antitumor activity against human LOXIMVI cells after 48 hrs; assay type: functional; conditions: LOX IMVI
[42] = tested on: OVCAR-3; assay: Antitumor activity against human OVCAR3 cells after 48 hrs; assay type: functional; conditions: OVCAR-3, 48 h
[43] = tested on: HCT-116; assay: Antitumor activity against human HCT116 cells after 48 hrs; assay type: functional; conditions: HCT-116, 48 h
[44] = Antitumor activity against human RXF393 cells after 48 hrs; assay type: functional; conditions: RXF 393, 48 h
[45] = tested on: SNB-75; assay: Antitumor activity against human SNB75 cells after 48 hrs; assay type: functional; conditions: SNB-75, 48 h
[46] = tested on: NCI-H23; assay: Antitumor activity against human NCI-H23 cells after 48 hrs; assay type: functional; conditions: NCI-H23, 48 h
[47] = tested on: SK-MEL-28; assay: Antitumor activity against human SK-MEL-28 cells after 48 hrs; assay type: functional; conditions: SK-MEL-28, 48 h
[48] = tested on: M14; assay: Antitumor activity against human M14 cells after 48 hrs; assay type: functional; conditions: M14, 48 h
[49] = tested on: K562; assay: Antitumor activity against human K562 cells after 48 hrs; assay type: functional; conditions: K562, 48 h
[50] = tested on: SR; assay: Antitumor activity against human SR cells after 48 hrs; assay type: functional
[51] = tested on: PC-3; assay: Antitumor activity against human PC3 cells after 48 hrs; assay type: functional; conditions: PC-3, 48 h
[52] = tested on: IGROV-1; assay: Antitumor activity against human IGROV1 cells after 48 hrs; assay type: functional; conditions: IGROV-1, 48 h
[53] = tested on: MDA-MB-468; assay: Antitumor activity against human MDA-MB-468 cells after 48 hrs; assay type: functional; conditions: MDA-MB-468, 48 h
[54] = tested on: A549; assay: Antitumor activity against human A549 cells after 48 hrs; assay type: functional; conditions: A549, 48 h
[55] = tested on: NCI-H322M; assay: Antitumor activity against human NCI-H322M cells after 48 hrs; assay type: functional
[56] = tested on: HCT-15; assay: Antitumor activity against human HCT15 cells after 48 hrs; assay type: functional; conditions: HCT-15, 48 h
[57] = tested on: SNB-19; assay: Antitumor activity against human SNB19 cells after 48 hrs; assay type: functional; conditions: SNB-19, 48 h
[58] = tested on: UACC-62; assay: Antitumor activity against human UACC62 cells after 48 hrs; assay type: functional; conditions: UACC-62, 48 h
[59] = tested on: OVCAR-4; assay: Antitumor activity against human OVCAR4 cells after 48 hrs; assay type: functional; conditions: OVCAR-4, 48 h

**Q.** Which results are given for COc1cc(OC)cc(/C(C#N)=C/c2ccc3ccccc3n2)c1?
**A.** GI50 [1]: inactive; GI50 [2]: 0.476 µM; GI50 [3]: 0.094 µM; GI50 [4]: 0.286 µM; GI50 [5]: 0.7 µM; GI50 [6]: 0.522 µM; GI50 [7]: 3.28 µM; GI50 [8]: 0.367 µM; GI50 [9]: 0.283 µM; GI50 [10]: 0.542 µM; GI50 [11]: 0.341 µM; GI50 [12]: 0.318 µM; GI50 [13]: 10.8 µM; GI50 [14]: 0.501 µM; GI50 [15]: 1.42 µM; GI50 [16]: 1.23 µM; GI50 [17]: 0.425 µM; GI50 [18]: 0.801 µM; GI50 [19]: 0.419 µM; GI50 [20]: 0.348 µM; GI50 [21]: 1.02 µM; GI50 [22]: 0.339 µM; GI50 [23]: 0.147 µM; GI50 [24]: 0.773 µM; GI50 [25]: 0.374 µM; GI50 [26]: 0.332 µM; GI50 [27]: 0.959 µM; GI50 [28]: 0.659 µM; GI50 [29]: 0.433 µM; GI50 [30]: 0.804 µM; GI50 [31]: 0.425 µM; GI50 [32]: 0.537 µM; GI50 [33]: 0.573 µM; GI50 [34]: 0.661 µM; GI50 [35]: 0.342 µM; GI50 [36]: 0.406 µM; GI50 [37]: 0.275 µM; GI50 [38]: 0.27 µM; GI50 [39]: 0.716 µM; GI50 [40]: 0.357 µM; GI50 [41]: 0.61 µM; GI50 [42]: 0.309 µM; GI50 [43]: 0.416 µM; GI50 [44]: 0.334 µM; GI50 [45]: 0.311 µM; GI50 [46]: 0.983 µM; GI50 [47]: 0.896 µM; GI50 [48]: 0.36 µM; GI50 [49]: 0.353 µM; GI50 [50]: inactive; GI50 [51]: 0.584 µM; GI50 [52]: 0.958 µM; GI50 [53]: 1.5 µM; GI50 [54]: 0.649 µM; GI50 [55]: 3.02 µM; GI50 [56]: 0.409 µM; GI50 [57]: 0.728 µM; GI50 [58]: 0.449 µM; GI50 [59]: 0.788 µM
